In US20050070437A1, “Herbicide combinations comprising specific sulfonamides” (Bayer CropScience GmbH, priority 2003, published 2005):

Legend:
Triticum aestivum = format: in vivo; settings: field trial, natural outdoor conditions; scored visually about 4 weeks after application vs untreated plots; mean of 2-4 plots; application rate g of active substance/hectare: A 5, B 25, C 50 (A + B 5 + 25; A + B + C 5 + 25 + 50)
Method: (§1) The seeds or rhizome pieces of the harmful plants and the useful plants were laid out or were present in the soil, and they were grown under natural outdoor conditions. Treatment with the active compounds or active compound combinations was carried out […] before and/or after the emergence of the plants, generally at the 2- to 4-leaf stage, in various dosages using a water application rate of 100 to 400 l/ha (converted).
(§2) After the application (about 4 weeks after the application), the effectiveness of the active compounds or active compound combinations was scored visually by comparing the treated plots to untreated control plots. During scoring, damage and development of all above-ground parts of plants was assessed. Scoring was carried out using a percentage scale (100% effect=all plants have died; 50% effect=50% of the plants and the green parts of the plants have died; 0% effect=no effect observed=like control plot). In each case, the mean score of 2-4 plots was calculated.
(§3) The results are shown in the table below; the effect of the individual application of active compounds (A+B) and C being stated in brackets.

Veronica hederifolia = assay: Herbicidal action (field trials), visual scoring of harmful plant; format: in vivo; settings: field trial, natural outdoor conditions; scored visually about 4 weeks after application vs untreated plots; mean of 2-4 plots; application rate g of active substance/hectare: A 5, B 25, C 50 (A + B 5 + 25; A + B + C 5 + 25 + 50)
Method: as §1, §2, §3

| Compound | Triticum aestivum % damage (Triticum aestivum) [%] | Veronica hederifolia % effect (Veronica hederifolia) [%] |
| --- | --- | --- |
| O=C(Nc1ccc(F)cc1F)c1cccnc1Oc1cccc(C(F)(F)F)c1 [diflufenican, 2′,4′-difluoro-2-(α,α,α-trifluoro-m-tolyloxy)nicotinanilide] | 0 | 40 |
| COC(=O)c1ccc(I)cc1S(=O)(=O)[N-]C(=O)Nc1nc(C)nc(OC)n1.[Na+] [iodosulfuron-methyl-sodium] | 1 | 15 |
| CCCOc1nn(C(=O)[N-]S(=O)(=O)c2ccccc2C(=O)OC)c(=O)n1C.[Na+] [propoxycarbazone-sodium] | 2 | 28 |
